Results taken from US20240173432A1, “Compositions and Methods for Treatment of Myotonic Dystrophy Type 1 with CRISPR/SluCas9” (Vertex Pharmaceuticals Incorporated, priority 2021, published 2024).

How the values were obtained:
[1] = system: CUG foci in primary DM1 patient myoblasts; experiment: Single-cut screening: FISH staining of CUG RNA foci; format: cell-based, human; settings: single sgRNA, primary DM1 patient myoblasts; for % of CUG foci free nuclei (DNA-PKi): DNA-PKi treated
In short: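 CD56-purified primary DM1 patient myoblasts nucleofected with SluCas9:sgRNA RNP (30:90 pmol, single-cut), then DMSO or 3 μM DNA-PK inhibitor for 48 h. At 72 h post-nucleofection, cells fixed and stained for CUG foci with Cy3-PNA(CAG)5 probe (1 ng/μL, 80 °C), co-stained for MBNL1 and Hoechst, imaged by high-content confocal microscopy.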

[2] = system: CAG foci in primary DM1 patient myoblasts; experiment: Single-cut screening: CAG foci staining; format: cell-based, human; settings: single sgRNA; for % of CAG foci positive nuclei (DNA-PKi): DNA-PKi treated
In short: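 Primary DM1 patient myoblasts were PFA-fixed and hybridized with […] (1 ng/μL, 15 min at 80° C) in 30% formamide/2×SSC, followed by anti-MBNL1 immunostaining and Hoechst counterstain. CAG RNA foci were quantified by high-content confocal imaging after single-cut SuCas9 sgRNA editing.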

[3] = system: 3′ UTR of the human DMPK gene; experiment: Single-cut screening: indel editing efficiency by Sanger sequencing and ICE analysis in primary DM1 patient myoblasts; format: cell-based; settings: vehicle-treated samples; for Indel efficiency: single SluCas9 sgRNA RNP in primary DM1 patient myoblasts, Sanger sequencing and ICE analysis
Procedure: Genomic DNA of DM1 myoblasts was isolated with the Kingfisher Flex purification system (Thermal Fisher) in 96-well format following the manufacturer's instruction. The DMPK 3′ UTR region was amplified using GoTaq Green Master Mix (Promega) and PCR primers flanking the 3′ UTR region. […] Amplification was conducted using the following cycling parameters: 1 cycle at 95° C. for 2 min; 40 cycles of 95° C. for 30 sec, 63° C. for 30 sec, and 72° C. for 90 sec; 1 cycle at 72° C. for 5 min. Only the wild type allele is amplified by the PCR reaction. The PCR products were analyzed on the TapeStation system with High Sensitivity D5000 ScreenTape (Agilent Technologies).
PCR products were purified and sequenced by Sanger sequencing. […] Indel values were estimated using the ICE analysis algorithm (Synthego) with the chromatogram files obtained from Sanger sequencing.
RNPs were assembled with recombinant SluCas9 protein and chemically modified sgRNAs at a ratio of 1:3 (protein:sgRNA). For SINGLE-cut screening, RNP complexes were assembled with 30 pmol of SluCas9 and 90 pmol of sgRNA in P5 Primary Cell Nucleofector Solution (Lonza). After incubation at room temperature for 20 minutes, 10 μL of RNP complex were mixed with two hundred thousand of primary myoblasts resuspended in 10 μL of P5 Nucleofector Solution. For DOUBLE-cut screening, RNP complexes were first assembled for individual sgRNAs with 20 pmol of SluCas9 protein and 60 pmol of sgRNAs in 5 μL of P5 Nucleofector Solution. After incubation at room temperature for 20 minutes, the two RNP complexes (one for upstream sgRNA and one for downstream sgRNA) were mixed at 1:1 ratio and then further mixed with two hundred thousand of primary myoblasts resuspended in 10 μL of P5 Nucleofector Solution.
The Nucleofector 96-well Shuttle System (Lonza) was used to deliver the SluCa9/sgRNA RNPs into primary DM1 patient myoblasts using the nucleofection program CM138. […] 72 hrs post nucleofection, two wells of DMSO-treated myoblasts and two wells of DNA-PKi-treated myoblasts from each nucleofection were harvested for genomic DNA extraction using the Kingfisher Flex purification system (Thermal Fisher), whereas one well of DMSO-treated myoblasts and one well of DNA-PKi-treated myoblasts were stained for RNA foci by FISH staining.
To assess the efficiency of individual SluCas9 sgRNAs for inducing indel editing and CTG repeat excision, single-cut screening was performed in which individual SluCas9 sgRNAs and recombinant SluCas9 protein were assembled into ribonucleoprotein (RNP) and delivered into primary DM1 patient myoblasts. […] Seventy-two (72) hrs post nucleofection, myoblasts were subjected to either genomic DNA isolation or RNA foci staining by fluorescence in situ hybridization (FISH).
Sanger sequencing and ICE analysis were then performed to quantify the frequency of indels induced by individual sgRNAs. It is of note that only the vehicle-treated samples were used for ICE analysis.
Editing efficiency was assessed by Sanger sequencing and ICE analysis. […] The * indicates the sgRNAs with R2<0.9 in the ICE analysis (in-house QC standard for reliable ICE analysis).

Substance	% of CUG foci free nuclei (DNA-PKi) [1] [%]	% of CUG foci free nuclei (Vehicle) [1] [%]	% of CAG foci positive nuclei (DNA-PKi) [2] [%]	% of CAG foci positive nuclei (Vehicle) [2] [%]	Indel efficiency [3] [%]	indel efficiency (Sanger sequencing and ICE analysis) ([3]; single-cut, SluCas9 RNP, 72 hrs post nucleofection, wild-type allele)
TGTGAACTGGCAGGCGGTGGGC (guide RNA; chemistry not fully specified) [SluU17]	67.55	21.96	1.28	1.5	32	–
GGGTCGGGGGTGGGGGTCCTAG (guide RNA; chemistry not fully specified) [SluD87]	39.12	15.16	2.19	1.3	30	–
CAGTTCACAACCGCTCCGAGCG (guide RNA; chemistry not fully specified) [SluU23]	29.8	11.23	1.53	1	5	–
cggggagggaggggccgggtcc (CGGGGAGGGAGGGGCCGGGTCC; guide RNA; chemistry not fully specified) [SluU52]	65.25	23.34	2.65	0.74	34	–
CTAGCggccggggagggagggg (guide RNA; as printed in the source, key not given here) [SluU47]	12.71	5.91	2.4	1	0	–
AAAAGCAAATTTCCCGAGTAAG (guide RNA; chemistry not fully specified) [SluD38]	15.53	6.59	1.96	0.93	1	–
GGCCCGCCCCCTAGCggccggg (guide RNA; as printed in the source, key not given here) [SluU38]	32.86	7.24	1.56	0.68	2	–
CCTGACGTGGATGGGCAAACTG (guide RNA; chemistry not fully specified) [SluD09]	33.83	12.5	1.48	1.16	5	–
CCTGTAGCCTGTCAGCGAGTCG (listed as DNA, chemistry not fully specified) [SluD68]	25.13	12.88	1.94	2.3	72	high editing IN4DEL efficiency
CCCCGGGCACTCAGTCTTCCAA (guide RNA; chemistry not fully specified) [SluU12]	50.23	16.44	1.38	1.29	20	–
ATTTCTTTCTTTCGGCCAGGCT (guide RNA; chemistry not fully specified) [SluD03]	49.43	14.38	2.14	1.19	2	–
GCCCAGCTCCAGTCCTGTGATC (guide RNA; chemistry not fully specified) [SluU28]	36.78	10.14	1.64	1.15	17	–
TGCGCTGCTCTCGGAGCCCCAG (guide RNA; chemistry not fully specified) [SluD54]	33.12	10.7	2.85	2.11	26	–
GCACTTTGCGAACCAACGATAG (guide RNA; chemistry not fully specified) [SluD28]	31.88	11.31	1.29	1.23	48	–
GGGCGCGGGATCCCCGAAAAAG (guide RNA; chemistry not fully specified) [SluD43]	20.27	6.41	0.82	1.31	1	–
GCCCCAGCCGGCTCCGCCCGCT (guide RNA; chemistry not fully specified) [SluD55]	34.69	15.71	2.92	3.01	41	–
CGCCCCCTAGCggccggggagg (guide RNA; as printed in the source, key not given here) [SluU41]	47.52	13.34	1.08	0.74	13	–
CTCAGTGCATCCAAAACGTGGA (guide RNA; chemistry not fully specified) [SluD77]	28.94	14.94	3.13	1.8	17	–
gagggaggggccgggtccgcgg (GAGGGAGGGGCCGGGTCCGCGG; guide RNA; chemistry not fully specified) [SluU54]	53.64	13.12	1.28	1.14	10	–
ctccctccccggccGCTAGGGG (guide RNA; as printed in the source, key not given here) [SluU45]	43.15	12.63	2.36	1.11	14	–
GATCACAGACCATTTCTTTCTT (guide RNA; chemistry not fully specified) [SluD01]	17.29	18.45	1.34	0.79	0	–
CAACGATAGGTGGGGGTGCGTG (guide RNA; chemistry not fully specified) [SluD23]	64.98	19.61	4.37	3.33	48	–
